Our source for the IC50 values is US8637523B2, “Compounds for the reduction of beta-amyloid production” (Bristol-Myers Squibb Company, priority 2010, dated 2014).

Like-named read-outs stand apart in the source and are kept apart here. Some results are limits rather than exact numbers.

The subject of this assay is Aβ42. Put plainly: Cellular assay for inhibition of Aβ1-42 production (H4 APP751 SWE clone 8.20). It counts as cell-based. As to conditions: H4 APP751 SWE clone 8.20 cells, 19 h incubation. The gist of the method: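 Inhibition values are IC50s fitted to Viewlux counts after a 19 h compound exposure at 37 °C. Aβ42 was captured by the neoepitope-specific antibody 565 (0.8 ng/well) paired with N-terminal 26D6 (75 ng/well), incubated overnight at 4 °C in pH 7.4 Tris-HCl buffer containing 0.2% BSA.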

[1] abbreviates: read-out: Activity Rating (Aβ42 cellular IC50), class symbol.
The mark [2] stands for this setting: 19 h, read-out: Activity Rating (Aβ42 cellular IC50), class symbol.
Setting [3] is: 19 h, unit inferred, read-out: Activity Rating (Aβ42 cellular IC50), numeric value.
[4] abbreviates: unit inferred, read-out: Activity Rating (Aβ42 cellular IC50), numeric value.

Consider `CN1CC=CCOc2cc(ccc2C#N)Nc2nc3c(c1n2)CCC3c1ccccc1` (centres unmarked) [Example 30B, (11E)-7-cyano-14-methyl-18-phenyl-10,13,14,16,17,18-hexahydro-15,2-(azeno)-8,4-(metheno)cyclopenta[h][1,6,10,12]oxatriazacycloheptadecine], for which the IC50 under setting [1] lay in the range of 10 to 100 nM.
For the compound `CN1CCCOc2cc(ccc2C#N)Nc2nc3c(c1n2)CCC3c1ccccc1` (stereo not drawn) [Example 31A, 7-cyano-β-methyl-17-phenyl-11,12,13,15,16,17-hexahydro-10H-14,2-(azeno)-8,4-(metheno)cyclopenta[g][1,5,9,11]oxatriazacyclohexadecine], the IC50 under setting [2] is 10 to 100 nM.
For `CN1CCCOc2cc(ccc2C#N)Nc2nc3c(c1n2)CCC3c1ccccc1` (stereo not drawn) [Example 31B, 7-cyano-β-methyl-17-phenyl-11,12,13,15,16,17-hexahydro-10H-14,2-(azeno)-8,4-(metheno)cyclopenta[g][1,5,9,11]oxatriazacyclohexadecine], the IC50 under setting [3] is 31 nM.
As for `N#Cc1ccc2cc1OCCCNc1nc(nc3c1CCC3c1ccc(F)cc1F)N2` (centres unmarked) [Example 33A, 7-cyano-17-(2,4-difluorophenyl)-11,12,13,15,16,17-hexahydro-10H-14,2-(azeno)-8,4-(metheno)cyclopenta[g][1,5,9,14]oxatriazacyclohexadecine], the IC50 under setting [2] was in the range of 10 to 100 nM.
With `N#Cc1ccc2cc1OCCCNc1nc(nc3c1CCC3c1ccc(F)cc1F)N2` (centres unmarked) [Example 33B, 7-cyano-17-(2,4-difluorophenyl)-11,12,13,15,16,17-hexahydro-10H-14,2-(azeno)-8,4-(metheno)cyclopenta[g][1,5,9,14]oxatriazacyclohexadecine], under setting [3], the IC50 was found to be 37 nM.
Take `CN1CCCOc2cc(ccc2C#N)Nc2nc3c(c1n2)CCC3c1ccc(F)cc1F` (centres unmarked) [Example 35A, 7-cyano-17-(2,4-difluorophenyl)-13-methyl-11,12,13,15,16,17-hexahydro-10H-14,2-(azeno)-8,4-(metheno)cyclopenta[g][1,5,9,11]oxatriazacyclohexadecine]: under setting [2], the IC50 was in the range of 10 to 100 nM.
With `CN1CCCOc2cc(ccc2C#N)Nc2nc3c(c1n2)CCC3c1ccc(F)cc1F` (centres unmarked) [Example 35B, 7-cyano-17-(2,4-difluorophenyl)-13-methyl-11,12,13,15,16,17-hexahydro-10H-14,2-(azeno)-8,4-(metheno)cyclopenta[g][1,5,9,11]oxatriazacyclohexadecine], under setting [3], the IC50 was determined as 140 nM.
With `N#Cc1ccc2cc1OC/C=C/CCc1nc(nc3c1CCC3c1ccccc1)N2` (centres unmarked) [Example 37B, (11E)-7-cyano-18-phenyl-10,13,14,16,17,18-hexahydro-15,2-(azeno)-8,4-(metheno)cyclopenta[h][1,10,12]oxadiazacycloheptadecine], the IC50 under setting [1] fell in the range of 10 to 100 nM.
Regarding `N#Cc1ccc2cc1OCCCCCc1nc(nc3c1CCC3c1ccccc1)N2` (centres unmarked) [Example 38B, 7-cyano-18-phenyl-10,11,12,13,14,16,17,18-octahydro-15,2-(azeno)-8,4-(metheno)cyclopenta[h][1,10,12]oxadiazacycloheptadecine], the IC50 under setting [2] is 100 to 1000 nM.
Regarding `Cc1ncn(-c2ccc3cc2OCC=CCNc2nc(nc4c2CCC4c2ccccc2)N3)n1` (centres unmarked) [Example 39A, (11Z)-7-(3-methyl-1H-1,2,4-triazol-1-yl)-18-phenyl-10,13,14,16,17,18-hexahydro-15,2-(azeno)-8,4-(metheno)cyclopenta[h][1,6,10,12]oxatriazacycloheptadecine], the IC50 under setting [4] is 4 nM.
On to `Cc1ncn(-c2ccc3cc2OCC=CCNc2nc(nc4c2CCC4c2ccccc2)N3)n1` (centres unmarked) [Example 39B, (11Z)-7-(3-methyl-1H-1,2,4-triazol-1-yl)-18-phenyl-10,13,14,16,17,18-hexahydro-15,2-(azeno)-8,4-(metheno)cyclopenta[h][1,6,10,12]oxatriazacycloheptadecine], for which the IC50 under setting [1] was 10 to 100 nM.
On to `Cc1ncnn1-c1ccc2cc1OC/C=C\CN(C)c1nc(nc3c1CCC3c1ccccc1)N2` (centres unmarked) [Example 41B, (11Z)-14-methyl-7-(5-methyl-1H-1,2,4-triazol-1-yl)-18-phenyl-10,13,14,16,17,18-hexahydro-15,2-(azeno)-8,4-(metheno)cyclopenta[h][1,6,10,12]oxatriazacycloheptadecine], for which, under setting [2], the IC50 was 10 to 100 nM.
`Cc1ncnn1-c1ccc2cc1OCC=CCNc1nc(nc3c1CCC3c1ccccc1)N2` (centres unmarked) [Example 42A, (11Z)-7-(5-methyl-1H-1,2,4-triazol-1-yl)-18-phenyl-10,13,14,16,17,18-hexahydro-15,2-(azeno)-8,4-(metheno)cyclopenta[h][1,6,10,12]oxatriazacycloheptadecine]: the IC50 under setting [4] is 6.6 nM.
Take `Cc1ncnn1-c1ccc2cc1OCC=CCNc1nc(nc3c1CCC3c1ccccc1)N2` (centres unmarked) [Example 42B, (11Z)-7-(5-methyl-1H-1,2,4-triazol-1-yl)-18-phenyl-10,13,14,16,17,18-hexahydro-15,2-(azeno)-8,4-(metheno)cyclopenta[h][1,6,10,12]oxatriazacycloheptadecine]: the IC50 under setting [1] fell in the range of 10 to 100 nM.
Take `Cc1ncnn1-c1ccc2cc1OCC=CCNc1nc(nc3c1CCC3c1ccccc1)N2` (centres unmarked) [Example 43A, (11E)-7-(5-methyl-1H-1,2,4-triazol-1-yl)-18-phenyl-10,13,14,16,17,18-hexahydro-15,2-(azeno)-8,4-(metheno)cyclopenta[h][1,6,10,12]oxatriazacycloheptadecine]: the IC50 under setting [1] was less than 10 nM.
In the case of `Cc1ncnn1-c1ccc2cc1OCC=CCNc1nc(nc3c1CCC3c1ccccc1)N2` (centres unmarked) [Example 43B, (11E)-7-(5-methyl-1H-1,2,4-triazol-1-yl)-18-phenyl-10,13,14,16,17,18-hexahydro-15,2-(azeno)-8,4-(metheno)cyclopenta[h][1,6,10,12]oxatriazacycloheptadecine], the IC50 under setting [4] worked out at 53 nM.
Take `Cc1ncn(-c2ccc3cc2OC/C=C\CN(C)c2nc(nc4c2CCC4c2ccccc2)N3)n1` (centres unmarked) [Example 44A, (11Z)-14-methyl-7-(3-methyl-1H-1,2,4-triazol-1-yl)-18-phenyl-10,13,14,16,17,18-hexahydro-15,2-(azeno)-8,4-(metheno)cyclopenta[h][1,6,10,12]oxatriazacycloheptadecine]: under setting [2], the IC50 was less than 10 nM.
Regarding `Cc1ncn(-c2ccc3cc2OC/C=C\CN(C)c2nc(nc4c2CCC4c2ccccc2)N3)n1` (centres unmarked) [Example 44B, (11Z)-14-methyl-7-(3-methyl-1H-1,2,4-triazol-1-yl)-18-phenyl-10,13,14,16,17,18-hexahydro-15,2-(azeno)-8,4-(metheno)cyclopenta[h][1,6,10,12]oxatriazacycloheptadecine], the IC50 under setting [3] came to 30 nM.
Regarding `Cc1ncn(-c2ccc3cc2OC/C=C\CNc2nc(nc4c2CCC4c2ccc(F)cc2)N3)n1` (centres unmarked) [Example 45B, (11Z)-18-(4-fluorophenyl)-7-(3-methyl-1H-1,2,4-triazol-1-yl)-10,13,14,16,17,18-hexahydro-15,2-(azeno)-8,4-(metheno)cyclopenta[h][1,6,10,12]oxatriazacycloheptadecine], the IC50 under setting [1] lay in the range of 10 to 100 nM.
For `Cc1ncn(-c2ccc3cc2OCC=CCNc2nc(nc4c2CCC4c2ccc(F)cc2)N3)n1` (centres unmarked) [Example 46B, (11E)-18-(4-fluorophenyl)-7-(3-methyl-1H-1,2,4-triazol-1-yl)-10,13,14,16,17,18-hexahydro-15,2-(azeno)-8,4-(metheno)cyclopenta[h][1,6,10,12]oxatriazacycloheptadecine], under setting [1], the IC50 lay within 100 to 1000 nM.
Turning to `Cc1ncnn1-c1ccc2cc1OCCCCNc1nc(nc3c1CCC3c1ccccc1)N2` (centres unmarked) [Example 47A, 7-(5-methyl-1H-1,2,4-triazol-1-yl)-18-phenyl-10,11,12,13,14,16,17,18-octahydro-15,2-(azeno)-8,4-(metheno)cyclopenta[h][1,6,10,12]oxatriazacycloheptadecine], the IC50 under setting [3] came out at 5.6 nM.
For `Cc1ncnn1-c1ccc2cc1OCCCCNc1nc(nc3c1CCC3c1ccccc1)N2` (centres unmarked) [Example 47B, 7-(5-methyl-1H-1,2,4-triazol-1-yl)-18-phenyl-10,11,12,13,14,16,17,18-octahydro-15,2-(azeno)-8,4-(metheno)cyclopenta[h][1,6,10,12]oxatriazacycloheptadecine], the IC50 under setting [2] fell in the range of 10 to 100 nM.
For `Cc1ncnn1-c1ccc2cc1OCCCCN(C)c1nc(nc3c1CCC3c1ccccc1)N2` (centres unmarked) [Example 48A, 14-methyl-7-(5-methyl-1H-1,2,4-triazol-1-yl)-18-phenyl-10,11,12,13,14,16,17,18-octahydro-15,2-(azeno)-8,4-(metheno)cyclopenta[h][1,6,10,12]oxatriazacycloheptadecine], the IC50 under setting [2] is less than 10 nM.
With `Cc1ncnn1-c1ccc2cc1OCCCCN(C)c1nc(nc3c1CCC3c1ccccc1)N2` (centres unmarked) [Example 48B, 14-methyl-7-(5-methyl-1H-1,2,4-triazol-1-yl)-18-phenyl-10,11,12,13,14,16,17,18-octahydro-15,2-(azeno)-8,4-(metheno)cyclopenta[h][1,6,10,12]oxatriazacycloheptadecine], the IC50 under setting [3] stood at 88 nM.
Consider `Cc1ncn(-c2ccc3cc2OCCCCNc2nc(nc4c2CCC4c2ccccc2)N3)n1` (centres unmarked) [Example 49A, 7-(3-methyl-1H-1,2,4-triazol-1-yl)-18-phenyl-10,11,12,13,14,16,17,18-octahydro-15,2-(azeno)-8,4-(metheno)cyclopenta[h][1,6,10,12]oxatriazacycloheptadecine], for which the IC50 under setting [1] is less than 10 nM.
For the compound `Cc1ncn(-c2ccc3cc2OCCCCNc2nc(nc4c2CCC4c2ccccc2)N3)n1` (centres unmarked) [Example 49B, 7-(3-methyl-1H-1,2,4-triazol-1-yl)-18-phenyl-10,11,12,13,14,16,17,18-octahydro-15,2-(azeno)-8,4-(metheno)cyclopenta[h][1,6,10,12]oxatriazacycloheptadecine], the IC50 under setting [2] was in the range of 10 to 100 nM.

As usually defined, the IC50 is the concentration that gives 50% inhibition.
